Source: paper PMC4335872, “Pharmacokinetic-Pharmacodynamic Analysis of Spiroindolone Analogs and KAE609 in a Murine Malaria Model” (Antimicrobial Agents and Chemotherapy, 2015)
Values after ≈ are worked out from the molar mass of the structure shown. Values joined by “and” are separate entries in the source; they are usually repeats but may differ in a detail not shown here. Equal entries are not always repeated. “Also recorded” adds a separate entry of the source. Where two headings read alike, the source gives them in different places.

Experiments:
P. falciparum NF54 = test: In vitro [3H]hypoxanthine incorporation assay, P. falciparum NF54; format: cell-based, Plasmodium falciparum; conditions: for IC50: 16 h + 8 h incubation, read-out: IC50 (mean ± SD) for P. falciparum NF54 (n = 3)
Experimental: Human erythrocytes served as the host cells. In vitro antimalarial activity was measured using the [^3H]hypoxanthine incorporation assay ([36]) with strain NF54 of P. falciparum (obtained from Hoffmann-LaRoche Ltd.). The compounds were dissolved in dimethyl sulfoxide (DMSO) at a concentration of 10 mM, diluted in hypoxanthine-free culture medium, and titrated in duplicate over a 64-fold range in 96-well plates. […] The parasites were harvested onto glass fiber filters, and radioactivity was measured using a BetaPlate liquid scintillation counter (Wallac, Zurich, Switzerland). All assays were repeated at least three times. The results were recorded and expressed as a percentage of the untreated controls. […] In addition, for the PK-PD analysis of KAE609, an IC99 value was determined by transforming the data from a scintillation counter (Anscombe transformation) to account for Poissonian measurement error. […] Each of the three replicates was performed on a distinct 96-well plate. This has been accounted for in the fitting procedure by means of a Bayesian hierarchical model. The software used for parameter inference was Stan ([37]).

[1] = tested on: P. berghei GFP ANKA PbGFPCON; test: In vitro (ex vivo) P. berghei maturation assay; format: cell-based, Plasmodium berghei
Experimental: For the in vitro (ex vivo) P. berghei maturation assays ([38]), heparinized blood from infected mice (P. berghei GFP ANKA malaria strain PbGFPCON, a donation from A. P. Waters and C. J. Janse, Leiden University, Leiden, the Netherlands) ([39]) was washed with 9 ml of hypoxanthine-free culture medium and diluted with hypoxanthine-free culture medium and red blood cells (RBCs) from uninfected mice to a hematocrit of 5% and a parasitemia of 0.3%. Serial compound dilutions were prepared in DMSO and distributed as described above. The infected erythrocytes (0.3% final parasitemia and 2.5% final hematocrit) were added into the wells. After the plates were incubated for 16 h, 0.25 μCi of [^3H]hypoxanthine was added per well, and the plates were incubated for an additional 8 h. The parasites were harvested, and the in vitro (ex vivo) P. berghei IC50, IC90, and IC99 values were determined as described above.

[2] = tested on: P. berghei GFP ANKA malaria strain PbGFPCON; test: Dose-response efficacy in the P. berghei malaria mouse model; format: in vivo, female NMRI mice; conditions: for Hill slope: dose vs parasitemia model; for Pmax (maximum parasitemia) / Pmin (minimum parasitemia): sigmoid dose-response model, single oral doses 24 h postinfection; for Pmax (maximum parasitemia) / Pmin (minimum parasitemia) / ED90 (effective dose causing a 90% reduction in parasitemia): parasitemia 72 h postinfection; for ED90 (effective dose causing a 90% reduction in parasitemia): single oral dose 24 h postinfection; for Efficacy in the P. berghei mouse model: single oral doses 2.5 to 100 mg/kg
From the text: All in vivo studies conducted at the Swiss Tropical and Public Health Institute (TPH) adhered to local and national regulations of laboratory animal welfare in Switzerland (permission no. 1731). For in vivo efficacy, female (specific-pathogen-free) […] (NMRI) mice were obtained from Janvier, Le Genest-Saint-Isle, France. Only mice without visible signs of disease were used for the study. Standard laboratory conditions were adopted for husbandry. In vivo antimalarial activity was assessed using groups of five female NMRI mice (20 to 22 g) intravenously infected on day zero with 2 × 10^7 erythrocytes parasitized with P. berghei GFP ANKA malaria strain PbGFPCON (a donation from A. P. Waters and C. J. Janse, Leiden University) ([39]). Untreated control mice typically died between day six and day seven postinfection. Experimental compounds were formulated in 10% ethanol, 30% PEG 400, and 60% of 10% vitamin E TPGS and were administered orally in a volume of 10 ml/kg. Dose-response efficacy studies were conducted for each spiroindolone analog. Doses of 2.5, 5, 10, 30, and 100 mg/kg were administered to groups of 5 mice each as a single dose at 24 h postinfection. Parasitemia, expressed as parasitized red blood cells (pRBCs) of >100 RBCs, was determined 72 h postinfection using standard flow cytometry techniques ([39]).
Data analysis was done using nonlinear mixed-effect modeling (NONMEM version VI 2.0), which analyzed the PD data from multiple dose groups obtained simultaneously from different experiments. Within NONMEM, first-order conditional estimation (FOCE) was the method used ([40]). The log-transformed dose and level of parasitemia were used for analysis. For each compound, a dose-response model was built, and the ED90 (effective dose lowering 90% of parasitemia) values were determined using equation 1 ([41]), where P is the parasitemia measured at any given dose, Pmax is the maximum level of parasitemia, Pmin is the minimum level of parasitemia, EZ50 is the dose required to produce 50% of the maximal effect, s is the Hill slope describing the steepness of the curve, and x is the dose (in mg/kg). 1 P=Pmin +{[Pmax−Pmin]/[1+10^(logEZ50−log x)×s]}

[3] = HT-equilibrium solubility; format: physicochemical; conditions: pH 6.8, HT-equilibrium solubility
From the text: (§1) page 5: Running title: PreclinicalPK -PD of antimalarials 73 to high through put form at using in- house standard assa y protocols that are described in the 74 literature. […] 81 82 83 84 85 86 87 88 89 90 91 92 93 94 95 96 97 98 5

[4] = Intrinsic clearance in mouse liver microsomes; format: in vitro ADME; conditions: per mg protein
From the text: (§2) page 5: Running title: PreclinicalPK -PD of antimalarials 73 to high through put form at using in- house standard assa y protocols that are described in the 74 literature. 75 (a)HT-Equilibrium solubilit y at pH 6.8( 1); (b)Parallel Artificial Membrane P ermeability Assa y 76 expressed in % fraction absorbed (FA) ( 2,3 ); (c)Apparent permeability from apical to […] 78 tested; (d)intrinsic clearance in mouse liver micro somes ex pressed as µ L/ min/mg protein, in 79 the presen ce of liver enzym es ( 6); (e)Mous e plasm a protein binding using rapid equilibrium […] 81 82 83 84 85 86 87 88 89 90 91 92 93 94 95 96 97 98 5

[5] = RBC to plasma partitioning; format: in vitro ADME; conditions: mean from 1 µM & 10 µM
From the text: as §1

Caco-2 cells = test: Caco-2 permeability; format: in vitro ADME; conditions: apical to basolateral
From the text: as §2

[6] = Mouse plasma protein binding, rapid equilibrium dialysis; format: in vitro ADME
From the text: as §2

[7] = 16 h + 8 h incubation, read-out: IC50 (mean ± SD) for P. berghei GFP ANKA PbGFPCON (n = 3)

C[C@H]1Cc2c([nH]c3ccc(Cl)cc23)[C@@]2(N1)C(=O)Nc1ccc(Cl)cc12 [(+)-2]
IC50 (P. falciparum NF54): 0.0056 ± 0.0009 µM | IC50 [1, 7]: 0.075 ± 0.032 µM | Hill slope [2]: −3.36 | Pmax (maximum parasitemia) [2]: 30.90 | Pmin (minimum parasitemia) [2]: 0.03 | ED90 (effective dose causing a 90% reduction in parasitemia) [2]: 17.4 mg/kg | Solubility [3]: 22 µM (≈ 8.19 µg/mL) | Hepatic CLint in mouse liver microsomes [4]: 92 µL/min/mg | RBC to Plasma Ratio [5]: 0.77

C[C@H]1Cc2c([nH]c3cc(Cl)ccc23)[C@@]2(N1)C(=O)Nc1ccc(Cl)cc12 [(+)-3]
IC50 (P. falciparum NF54): 0.0056 ± 0.0007 µM | IC50 [1, 7]: 0.14 ± 0.054 µM | Hill slope [2]: −6.4 | Pmax (maximum parasitemia) [2]: 24.55 | Pmin (minimum parasitemia) [2]: 0.12 | ED90 (effective dose causing a 90% reduction in parasitemia) [2]: 17.9 mg/kg | Solubility [3]: 8 µM (≈ 2.98 µg/mL) | Caco-2 Papp (A-B) (Caco-2 cells): 41.7 10-6 cm/sec | Hepatic CLint in mouse liver microsomes [4]: 35 µL/min/mg | Mouse PPB [6]: 99.7% | RBC to Plasma Ratio [5]: 0.93

C[C@H]1Cc2c([nH]c3ccc(F)cc23)[C@@]2(N1)C(=O)Nc1ccc(Cl)cc12 [(+)-4]
IC50 (P. falciparum NF54): 0.0059 ± 0.0009 µM | IC50 [1, 7]: 0.104 ± 0.053 µM | Hill slope [2]: −2.87 | Pmax (maximum parasitemia) [2]: 30.90 | Pmin (minimum parasitemia) [2]: 0.03 | ED90 (effective dose causing a 90% reduction in parasitemia) [2]: 16.7 mg/kg | Solubility [3]: 137 µM (≈ 48.7 µg/mL) | Caco-2 Papp (A-B) (Caco-2 cells): 7.66 10-6 cm/sec | Hepatic CLint in mouse liver microsomes [4]: 330 µL/min/mg | Mouse PPB [6]: 98.8% | RBC to Plasma Ratio [5]: 0.62

C[C@H]1Cc2c([nH]c3cc(F)ccc23)[C@@]2(N1)C(=O)Nc1ccc(Cl)cc12 [(+)-5]
IC50 (P. falciparum NF54): 0.0043 ± 0.0004 µM | IC50 [1, 7]: 0.088 ± 0.026 µM | Hill slope [2]: −2.99 | Pmax (maximum parasitemia) [2]: 25.70 | Pmin (minimum parasitemia) [2]: 0.05 | ED90 (effective dose causing a 90% reduction in parasitemia) [2]: 38.1 mg/kg | Solubility [3]: 131 µM (≈ 46.6 µg/mL) | Caco-2 Papp (A-B) (Caco-2 cells): 4.33 10-6 cm/sec | Hepatic CLint in mouse liver microsomes [4]: 26 µL/min/mg | Mouse PPB [6]: 98.5% | RBC to Plasma Ratio [5]: 1.18

C[C@H]1Cc2c([nH]c3cc(F)c(F)cc23)[C@@]2(N1)C(=O)Nc1ccc(Cl)cc12 [(+)-6]
IC50 (P. falciparum NF54): 0.00033 ± 6e-05 µM | IC50 [1, 7]: 0.0075 ± 0.0025 µM | Hill slope [2]: −2.03 | Pmax (maximum parasitemia) [2]: 32.36 | Pmin (minimum parasitemia) [2]: 0.09 | ED90 (effective dose causing a 90% reduction in parasitemia) [2]: 17.3 mg/kg | Solubility [3]: 169 µM (≈ 63.2 µg/mL) | Caco-2 Papp (A-B) (Caco-2 cells): 5.55 10-6 cm/sec | Hepatic CLint in mouse liver microsomes [4]: 41 µL/min/mg | Mouse PPB [6]: 99.5% | RBC to Plasma Ratio [5]: 1.12

C[C@H]1Cc2c([nH]c3cc(Cl)c(F)cc23)[C@@]2(N1)C(=O)Nc1ccc(Cl)cc12 [(+)-7 (KAE609)]
Threshold (TRE), 2 × P. falciparum IC99 (P. falciparum NF54): 1 ng/mL | IC50 (P. falciparum NF54; Plasmodium falciparum, NF54): 0.0012 ± 0.0002 µM | Threshold (TRE), 2× the P. berghei IC99 [1]: 123 nM and 48 ng/ml | IC50 ([1]; Plasmodium berghei, read-out: IC50 against P. berghei in vitro): 0.01 mg/L | IC50 ([1]; Plasmodium berghei, 16 h + 8 h incubation, read-out: IC50 (mean ± SD) for P. berghei GFP ANKA PbGFPCON (n = 3)): 0.026 ± 0.014 µM | IC99 in the ex vivo P. berghei maturation assay ([1]; four-parametric logistic fit, Bayesian hierarchical model): 61.6 nM | Complete cure (>30 days survival) ([2]; data not shown): complete cure | Hill slope [2]: −2.73 | Pmax (maximum parasitemia) [2]: 33.88 | Pmin (minimum parasitemia) [2]: 0.29 | ED90 (effective dose causing a 90% reduction in parasitemia) [2]: 5.6 mg/kg | Solubility ([3]; aqueous buffer, thermodynamic from solid): 39 µM (≈ 15.2 µg/mL) | microsomal CLint ([4]; mouse, liver microsomes, read-out: Hepatic CLint in mouse liver microsomes): 28 µL/min/mg

C[C@@H]1Cc2c([nH]c3cc(F)c(F)cc23)[C@]2(N1)C(=O)Nc1ccc(Cl)cc12 [(−)-6]
In vitro activity against P. falciparum (P. falciparum NF54): submicromolar | IC50 (P. falciparum NF54): 0.105 ± 0.02 µM | IC50 [1, 7]: 2.85 µM | Efficacy in the P. berghei mouse model [2]: no efficacy; also recorded: poor efficacy regardless of dose | Solubility [3]: 112 µM (≈ 41.9 µg/mL) | Caco-2 Papp (A-B) (Caco-2 cells): 4.8 10-6 cm/sec | Hepatic CLint in mouse liver microsomes [4]: 36 µL/min/mg | Mouse PPB [6]: 99.6% | RBC to Plasma Ratio [5]: 0.81

C[C@@H]1Cc2c([nH]c3cc(Cl)c(F)cc23)[C@]2(N1)C(=O)Nc1ccc(Cl)cc12 [(−)-7]
In vitro activity against P. falciparum (P. falciparum NF54): submicromolar | IC50 (P. falciparum NF54): 0.21 ± 0.019 µM | IC50 [1, 7]: 4.91 µM | Efficacy in the P. berghei mouse model [2]: no efficacy; also recorded: poor efficacy regardless of dose | Solubility [3]: 35 µM (≈ 13.7 µg/mL) | Caco-2 Papp (A-B) (Caco-2 cells): 1.73 10-6 cm/sec | Hepatic CLint in mouse liver microsomes [4]: 21 µL/min/mg | Mouse PPB [6]: 99.4% | RBC to Plasma Ratio [5]: 0.52
